pEC50: −log10 of the molar value.
Biological target: T1, human mAChR M4 (Homo sapiens, UniProt P08173)
T1 construct: expressed in transfected cells; host or cells: CHO-K1 (ATCC), stably expressing hM4 and Gqi5
T1 sequence (P08173 1-479): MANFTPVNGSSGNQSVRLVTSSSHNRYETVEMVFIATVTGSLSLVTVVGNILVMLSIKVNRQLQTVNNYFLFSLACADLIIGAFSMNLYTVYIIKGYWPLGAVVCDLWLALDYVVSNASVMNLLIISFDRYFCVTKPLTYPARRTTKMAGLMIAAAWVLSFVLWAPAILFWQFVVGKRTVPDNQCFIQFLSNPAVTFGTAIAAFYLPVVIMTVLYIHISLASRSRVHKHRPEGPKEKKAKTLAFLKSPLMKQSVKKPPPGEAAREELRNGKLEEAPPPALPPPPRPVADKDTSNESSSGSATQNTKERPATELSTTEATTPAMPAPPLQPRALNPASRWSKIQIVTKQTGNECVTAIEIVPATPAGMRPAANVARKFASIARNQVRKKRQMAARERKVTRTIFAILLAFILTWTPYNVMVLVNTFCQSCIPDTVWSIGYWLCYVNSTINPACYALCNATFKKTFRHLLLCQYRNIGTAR
Test: mAChR M4 cell-based functional assay: calcium flux (Fluo-4, FDSS), positive allosteric modulator activity on the EC20 acetylcholine response, hM4-Gqi5 CHO-K1 cells
Details: for Emax at 30 µM: CHO-K1, human M4, % ACh maximum at 30 μM; for pEC50: human M4, PAM activity on EC20 acetylcholine response, calcium flux, read-out: Human M4 EC50
Summary of the method: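 Potentiation was taken as the concentration-dependent rise in the EC20 acetylcholine calcium response, fitted by a four-parameter logistic with EC20 as baseline. Fluo-4-loaded hM4-Gqi5 CHO-K1 cells received 11-point, threefold-diluted compound before acetylcholine at 144 s; FDSS read at 1 Hz.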

| Emax at 30 µM [%] | pEC50 | SMILES |
| --- | --- | --- |
| 76 | 5.41 | Fc1cc2c(N3CCc4ncc(Nc5cccnc5F)cc4C3)nc(Cl)nc2cc1Cl [Compound 110, 6-(2,7-dichloro-6-fluoro-quinazolin-4-yl)-N-(2-fluoro-3-pyridyl)-7,8-dihydro-5H-1,6-naphthyridin-3-amine] |
| 82 | 6.40 | Fc1ccc2nc(C(F)(F)F)nc(N3CCc4ncc(N5CCCn6nccc65)cc4C3)c2c1 [Compound 111, 4-[3-(6,7-dihydro-5H-pyrazolo[1,5-a]pyrimidin-4-yl)-7,8-dihydro-5H-1,6-naphthyridin-6-yl]-6-fluoro-2-(trifluoromethyl)quinazoline] |
| 92 | 6.42 | Fc1ccc2nc(C(F)(F)F)nc(N3CCc4ncc(N5CCOc6ncccc65)cc4C3)c2c1 [Compound 112, 1-[6-[6-fluoro-2-(trifluoromethyl)quinazolin-4-yl]-7,8-dihydro-5H-1,6-naphthyridin-3-yl]-2,3-dihydropyrido[2,3-b][1,4]oxazine] |
| 69 | 6.80 | Fc1ccc2ncnc(N3CCc4ncc(Oc5ccccc5F)cc4C3)c2c1 [Compound 113, 6-fluoro-4-[3-(2-fluorophenoxy)-7,8-dihydro-5H-1,6-naphthyridin-6-yl]quinazoline] |
| 75 | 6.23 | Fc1cccc(Cc2cnc3c(c2)CN(c2ncnc4ccc(F)cc24)CC3)c1 [Compound 114, 6-fluoro-4-[3-[(3-fluorophenyl)methyl]-7,8-dihydro-5H-1,6-naphthyridin-6-yl]quinazoline] |
| 63 | 5.08 | Cc1nc(N2Cc3cc(C(F)(F)F)cnc3C(C)(C)C2)c2cc(F)ccc2n1 [Compound 118, 4-[8,8-dimethyl-3-(trifluoromethyl)-5,7-dihydro-1,6-naphthyridin-6-yl]-6-fluoro-2-methyl-quinazoline] |
| 95 | 6.96 | Cc1ccc2nc(Cl)nc(N3CCc4ncc(C(F)(F)F)cc4C3)c2c1 [Compound 119, 2-chloro-6-methyl-4-[3-(trifluoromethyl)-7,8-dihydro-5H-1,6-naphthyridin-6-yl]quinazoline] |
| 91 | 7.00 | Fc1ccc2nc(Cl)nc(N3CCc4ncc(C(F)(F)F)cc4C3)c2c1 [Compound 120, 2-chloro-6-fluoro-4-[3-(trifluoromethyl)-7,8-dihydro-5H-1,6-naphthyridin-6-yl]quinazoline] |
| 69 | 6.44 | FC(F)(F)c1cnc2c(c1)CN(c1nc(Cl)nc3ncccc13)CC2 [Compound 121, 2-chloro-4-[3-(trifluoromethyl)-7,8-dihydro-5H-1,6-naphthyridin-6-yl]pyrido[2,3-d]pyrimidine] |
| 89 | 7.05 | Fc1ccc2ncnc(N3CCc4ncc(C(F)(F)F)cc4C3)c2c1 [Compound 122, 6-fluoro-4-[3-(trifluoromethyl)-7,8-dihydro-5H-1,6-naphthyridin-6-yl]quinazoline] |
| 68 | 6.47 | FC(F)(F)c1cnc2c(c1)CN(c1nc(Cl)nc3ccccc13)CC2 [Compound 123, 2-chloro-4-[3-(trifluoromethyl)-7,8-dihydro-5H-1,6-naphthyridin-6-yl]quinazoline] |
| 43 | 6.02 | Cc1ccc2c(N3CCc4ncc(C(F)(F)F)cc4C3)nc(C)nc2c1 [Compound 124, 2,7-dimethyl-4-[3-(trifluoromethyl)-7,8-dihydro-5H-1,6-naphthyridin-6-yl]quinazoline] |
| 78 | 6.40 | Cc1nc(N2CCc3ncc(C(F)(F)F)cc3C2)c2c(F)cccc2n1 [Compound 125, 5-fluoro-2-methyl-4-[3-(trifluoromethyl)-7,8-dihydro-5H-1,6-naphthyridin-6-yl]quinazoline] |
| 66 | 6.51 | Cc1nc(N2CCc3ncc(C(F)(F)F)cc3C2)c2cccc(F)c2n1 [Compound 126, 8-fluoro-2-methyl-4-[3-(trifluoromethyl)-7,8-dihydro-5H-1,6-naphthyridin-6-yl]quinazoline] |
| 63 | 6.37 | Cc1nc(N2CCc3ncc(C(F)(F)F)cc3C2)c2ccc(F)cc2n1 [Compound 127, 7-fluoro-2-methyl-4-[3-(trifluoromethyl)-7,8-dihydro-5H-1,6-naphthyridin-6-yl]quinazoline] |
| 32 | 5.76 | Cc1nc(N2CCc3ncc(C(F)(F)F)cc3C2)c2ccc(Br)cc2n1 [Compound 128, 7-bromo-2-methyl-4-[3-(trifluoromethyl)-7,8-dihydro-5H-1,6-naphthyridin-6-yl]quinazoline] |

| Emax at 30 µM [%] | pEC50 | SMILES |
| --- | --- | --- |
| 86 | 6.74 | Cc1nc(N2CCc3ncc(C(F)(F)F)cc3C2)c2cc(Br)ccc2n1 [Compound 129, 6-bromo-2-methyl-4-[3-(trifluoromethyl)-7,8-dihydro-5H-1,6-naphthyridin-6-yl]quinazoline] |
| 86 | 7.10 | Cc1nc(N2CCc3ncc(C(F)(F)F)cc3C2)c2cc(F)ccc2n1 [Compound 130, 6-fluoro-2-methyl-4-[3-(trifluoromethyl)-7,8-dihydro-5H-1,6-naphthyridin-6-yl]quinazoline] |
| 82 | 7.52 | Cc1ccc2ncnc(N3CCc4ncc(C(F)(F)F)cc4C3)c2c1 [Compound 131, 6-methyl-4-[3-(trifluoromethyl)-7,8-dihydro-5H-1,6-naphthyridin-6-yl]quinazoline] |
| 32 | < 5.00 | Cc1nc(N2CCc3ncc(C(F)(F)F)cc3C2)c2c(Cl)cccc2n1 [Compound 132, 5-chloro-2-methyl-4-[3-(trifluoromethyl)-7,8-dihydro-5H-1,6-naphthyridin-6-yl]quinazoline] |
| 87 | 6.64 | Cc1nc(N2CCc3ncc(Oc4ccccc4F)cc3C2)c2cc(F)ccc2n1 [Compound 133, 6-fluoro-4-[3-(2-fluorophenoxy)-7,8-dihydro-5H-1,6-naphthyridin-6-yl]-2-methyl-quinazoline] |
| 75 | 7.05 | Cc1nc(N2CCc3ncc(C(F)(F)F)cc3C2)c2cc(Cl)ccc2n1 [Compound 134, 6-chlroo-2-methyl-4-[3-(trifluoromethyl)-7,8-dihydro-5H-1,6-naphthyridin-6-yl]quinazoline] |
| 91 | 5.78 | FC(F)(F)c1cnc2c(c1)CN(c1nc(Cl)nc3ccc(C(F)(F)F)cc13)CC2 [Compound 135, 2-chloro-6-(trifluoromethyl)-4-[3-(trifluoromethyl)-7,8-dihydro-5H-1,6-naphthyridin-6-yl]quinazoline] |
| 98 | 6.80 | FC(F)(F)c1cnc2c(c1)CN(c1ncnc3ccc(Br)cc13)CC2 [Compound 136, 6-bromo-4-[3-(trifluoromethyl)-7,8-dihydro-5H-1,6-naphthyridin-6-yl]quinazoline] |
| 83 | 6.37 | Fc1ccc2c(N3CCc4ncc(C(F)(F)F)cc4C3)ncnc2c1 [Compound 137, 7-fluoro-4-[3-(trifluoromethyl)-7,8-dihydro-5H-1,6-naphthyridin-6-yl]quinazoline] |
| 82 | 6.32 | Cc1nc(N2CCc3ncc(C(F)(F)F)cc3C2)c2ccccc2n1 [Compound 138, 2-methyl-4-[3-(trifluoromethyl)-7,8-dihydro-5H-1,6-naphthyridin-6-yl]quinazoline] |
| 97 | 6.70 | COc1ccc2ncnc(N3CCc4ncc(C(F)(F)F)cc4C3)c2c1 [Compound 139, 6-methoxy-4-[3-(trifluoromethyl)-7,8-dihydro-5H-1,6-naphthyridin-6-yl]quinazoline] |
| 105 | 7.10 | FC(F)(F)c1cnc2c(c1)CN(c1ncnc3ccc(Cl)cc13)CC2 [Compound 140, 6-chloro-4-[3-(trifluoromethyl)-7,8-dihydro-5H-1,6-naphthyridin-6-yl]quinazoline] |
| 95 | 6.66 | FC(F)(F)c1cnc2c(c1)CN(c1nc(Cl)nc3ccc(Cl)cc13)CC2 [Compound 141, 2,6-dichloro-4-[3-(trifluoromethyl)-7,8-dihydro-5H-1,6-naphthyridin-6-yl]quinazoline] |
| 105 | 6.59 | Cc1nc(N2CCc3ncc(C(F)(F)F)cc3C2)c2cc(C#N)ccc2n1 [Compound 142, 2-methyl-4-[3-(trifluoromethyl)-7,8-dihydro-5H-1,6-naphthyridin-6-yl]quinazoline-6-carbonitrile] |
| 77 | 5.85 | Cc1nc(N2CCc3ncc(C(F)(F)F)cc3C2)c2cc(C3CC3)ccc2n1 [Compound 143, 6-cyclopropyl-2-methyl-4-[3-(trifluoromethyl)-7,8-dihydro-5H-1,6-naphthyridin-6-yl]quinazoline] |
| 74 | 5.72 | Cc1ccc(Oc2cnc3c(c2)CN(c2ncnc4ccc(F)cc24)CC3)c(F)c1 [Compound 144, 6-fluoro-4-[3-(2-fluoro-4-methyl-phenoxy)-7,8-dihydro-5H-1,6-naphthyridin-6-yl]quinazoline] |
